Structures can show the parent of a compound that is named as a salt.
Assays:
[1] = Stability on stringent 60° C. heat treatment (HPLC content); conditions: for chemical stability at high temperature: 60° C. heat treatment
Method: The inorganic acid salts of sibutramine, prepared in Examples 1, 2 and 3, and sibutramine hydrochloride monohydrate were exposed to a stringent 60° C. heat treatment.
HPLC was performed under the following conditions. Wavelength of UV detection: 225 nm
Column: octadecyl silica gel, C18 (4.6×150 mm, 5 μm)

[2] = Evaluation of hygroscopicity: water content (K.F.) after exposure to humid conditions; format: physicochemical; conditions: for change in water content under humid conditions: 75% and 90% RH, up to 1 week
Method: Then, the water content (K.F. water %) of the samples was measured.

[3] = Light stability test, fluorescent light at 25° C., ICH chamber (HPLC content); format: physicochemical
Method: A light stability test was performed as follows.

[4] = Evaluation of solubility in solutions having various pH values
Source text: In Table 8, the solubility is expressed as milligrams (mg) of sibutramine dissolved per milliliter (ml) of solution.

[5] = 75% relative humidity, 25 °C, 1 week
[6] = 75% relative humidity, 25 °C, 3 days
[7] = 90% relative humidity, 25 °C, 1 week
[8] = 90% relative humidity, 25 °C, 3 days
[9] = fluorescent light, 25° C., 1 wk
[10] = fluorescent light, 25° C., 2 wks
[11] = fluorescent light, 25° C., 4 wks

CC(C)CC(N(C)C)C1(c2ccc(Cl)cc2)CCC1 (stereo not shown) [Sibutramine HCl hydrate, sibutramine hydrochloride monohydrate, reference compound]
chemical stability at high temperature [1]: good chemical stability | content (HPLC) on 60° C. heat treatment ([1]; 60° C., 1 wk): 1.000 | content (HPLC) on 60° C. heat treatment ([1]; 60° C., 2 wks): 0.999 | content (HPLC) on 60° C. heat treatment ([1]; 60° C., 4 wks): 0.999 | content (HPLC) on 60° C. heat treatment ([1]; Initial): 1.000 | change in water content under humid conditions [2]: almost no change in water content | water content (K.F. water %) [2, 5]: 5.5% | water content (K.F. water %) [2, 6]: 5.49% | water content (K.F. water %) [2, 7]: 5.49% | water content (K.F. water %) [2, 8]: 5.5% | water content (K.F. water %) ([2]; Initial): 5.5% | content (HPLC) on exposure to fluorescent light ([3]; Initial): 1.000 | content (HPLC) on exposure to fluorescent light [3, 9]: 1.000 | content (HPLC) on exposure to fluorescent light [3, 10]: 0.999 | content (HPLC) on exposure to fluorescent light [3, 11]: 0.999 | light stability ([3]; fluorescent light, 25° C., content by HPLC): good light stability

sibutramine bromate
chemical stability at high temperature [1]: good chemical stability | content (HPLC) on 60° C. heat treatment ([1]; 60° C., 1 wk): 0.999 | content (HPLC) on 60° C. heat treatment ([1]; 60° C., 2 wks): 1.000 | content (HPLC) on 60° C. heat treatment ([1]; 60° C., 4 wks): 0.999 | content (HPLC) on 60° C. heat treatment ([1]; Initial): 1.000 | solubility (mg of sibutramine dissolved per ml of solution) ([4]; DW (distilled water), dissolved at 37° C.): 12.78 mg/mL | solubility (mg of sibutramine dissolved per ml of solution) ([4]; pH 1.2, dissolved at 37° C.): 12.43 mg/mL | solubility (mg of sibutramine dissolved per ml of solution) ([4]; pH 4.0, dissolved at 37° C.): 3.64 mg/mL | solubility (mg of sibutramine dissolved per ml of solution) ([4]; pH 5.3, dissolved at 37° C.): 8.96 mg/mL | solubility (mg of sibutramine dissolved per ml of solution) ([4]; pH 6.8, dissolved at 37° C.): 11.08 mg/mL | solubility (mg of sibutramine dissolved per ml of solution) ([4]; pH 7.4, dissolved at 37° C.): 12.41 mg/mL | change in water content under humid conditions [2]: almost no change in water content | water content (K.F. water %) [2, 5]: 0.09% | water content (K.F. water %) [2, 6]: 0.09% | water content (K.F. water %) [2, 7]: 0.08% | water content (K.F. water %) [2, 8]: 0.08% | water content (K.F. water %) ([2]; Initial): 0.09% | content (HPLC) on exposure to fluorescent light ([3]; Initial): 1.000 | content (HPLC) on exposure to fluorescent light [3, 9]: 1.000 | content (HPLC) on exposure to fluorescent light [3, 10]: 0.999 | content (HPLC) on exposure to fluorescent light [3, 11]: 0.999

sibutramine hydrogen sulfate
chemical stability at high temperature [1]: good chemical stability | content (HPLC) on 60° C. heat treatment ([1]; 60° C., 1 wk): 1.000 | content (HPLC) on 60° C. heat treatment ([1]; 60° C., 2 wks): 0.999 | content (HPLC) on 60° C. heat treatment ([1]; 60° C., 4 wks): 0.999 | content (HPLC) on 60° C. heat treatment ([1]; Initial): 1.000 | change in water content under humid conditions [2]: almost no change in water content | water content (K.F. water %) [2, 5]: 0.01% | water content (K.F. water %) [2, 6]: 0.02% | water content (K.F. water %) [2, 7]: 0.03% | water content (K.F. water %) [2, 8]: 0.03% | water content (K.F. water %) ([2]; Initial): 0.02% | content (HPLC) on exposure to fluorescent light ([3]; Initial): 1.000 | content (HPLC) on exposure to fluorescent light [3, 9]: 1.000 | content (HPLC) on exposure to fluorescent light [3, 10]: 1.000 | content (HPLC) on exposure to fluorescent light [3, 11]: 0.999

sibutramine phosphate monohydrate [Sibutramine phosphate hydrate]
chemical stability at high temperature [1]: good chemical stability | content (HPLC) on 60° C. heat treatment ([1]; 60° C., 1 wk): 1.000 | content (HPLC) on 60° C. heat treatment ([1]; 60° C., 2 wks): 0.999 | content (HPLC) on 60° C. heat treatment ([1]; 60° C., 4 wks): 1.000 | content (HPLC) on 60° C. heat treatment ([1]; Initial): 1.000 | change in water content under humid conditions [2]: almost no change in water content | water content (K.F. water %) [2, 5]: 4.25% | water content (K.F. water %) [2, 6]: 4.24% | water content (K.F. water %) [2, 7]: 4.26% | water content (K.F. water %) [2, 8]: 4.25% | water content (K.F. water %) ([2]; Initial): 4.25% | content (HPLC) on exposure to fluorescent light ([3]; Initial): 1.000 | content (HPLC) on exposure to fluorescent light [3, 9]: 1.000 | content (HPLC) on exposure to fluorescent light [3, 10]: 0.999 | content (HPLC) on exposure to fluorescent light [3, 11]: 0.999

Reference: patent US7432398B2, “Inorganic acid salts of sibutramine” (CJ Corporation, priority 2005, dated 2008)
